Measurements reported in patent US11702418B2, “SOS1 inhibitors” (priority 2019, dated 2023).
Structures can show the parent of a compound that is named as a salt. Where two headings read alike, the source gives them in different places.

Experiments:
[1] = molecular target: recombinant human SOS1 polypeptide (amino acids 560-1049) (Homo sapiens (Human), UniProt Q07889); test: biochemical; type: binding; details: read-out: Ki, Inhibition of Labeled Tracer Binding to SOS1
pERK in MKN1 cells = test: cells; type: cell-based
[2] = HTRF displacement, Cy5 labelled tracer, Morrison equation for competitive binding
[3] = Homo sapiens, MKN-1, pERK inhibition, In-Cell Western, MKN1 or H358 cells (Table 24 does not say which), 0.5-1 hour incubation, read-out: IC50
[4] = Homo sapiens, MKN-1, pERK inhibition, In-Cell Western, MKN1 or H358 cells (Table 24 does not say which), 0.5-1 hour incubation

Chain of recombinant human SOS1 polypeptide (amino acids 560-1049) (Q07889 560-1049): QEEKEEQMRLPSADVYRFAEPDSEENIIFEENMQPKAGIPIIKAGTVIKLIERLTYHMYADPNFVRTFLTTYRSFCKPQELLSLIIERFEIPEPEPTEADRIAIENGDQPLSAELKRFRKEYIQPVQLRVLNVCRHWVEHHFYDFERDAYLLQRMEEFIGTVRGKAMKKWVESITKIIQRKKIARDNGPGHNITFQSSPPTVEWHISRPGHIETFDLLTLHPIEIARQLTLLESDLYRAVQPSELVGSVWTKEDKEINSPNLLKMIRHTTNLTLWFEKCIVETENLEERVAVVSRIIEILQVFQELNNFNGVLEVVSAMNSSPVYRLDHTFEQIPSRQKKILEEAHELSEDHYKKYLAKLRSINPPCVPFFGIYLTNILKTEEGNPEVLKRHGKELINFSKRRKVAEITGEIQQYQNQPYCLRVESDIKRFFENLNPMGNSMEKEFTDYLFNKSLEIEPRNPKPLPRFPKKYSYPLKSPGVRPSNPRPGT

SMILES | Ki [1, 2] [nM] | IC50 (pERK in MKN1 cells; [3]) [nM] | also measured
Cc1c([C@@H](C)Nc2nnc(C)c3ccc(OC[C@H]4CCCN4)cc23)cccc1C(F)(F)F [Example 7-7, 4-methyl-N-((R)-1-(2-methyl-3-(trifluoromethyl)phenyl)ethyl)-7-(((R)-pyrrolidin-2-yl)methoxy)phthalazin-1-amine hydrochloride salt] | – | – | Ki [1]: 0.92 nM; IC50 (pERK in MKN1 cells; Homo sapiens, MKN-1): 115 nM
Cc1c([C@@H](C)Nc2nnc(C)c3cnc(N4CC5(CCN(C)C5)C4)cc23)cccc1C(F)(F)F [Example 12-17] | 0.46 | 17 | –
Cc1c([C@@H](C)Nc2nnc(C)c3ccc(-n4cc5c(n4)CNC5)cc23)cccc1C(F)(F)F [Example 10-16, (R)-7-(5,6-dihydropyrrolo[3,4-c]pyrazol-2(4H)-yl)-4-methyl-N-(1-(2-methyl-3-(trifluoromethyl)phenyl)ethyl)phthalazin-1-amine] | 7.75 | 325 | –
Cc1c([C@@H](C)Nc2nnc(C)c3ccc(N4CC[C@H](N(C)C)C(F)(F)C4)cc23)cccc1C(F)(F)F [Example 21-6, 7-((S)-4-(dimethylamino)-3,3-difluoropiperidin-1-yl)-4-methyl-N—((R)-1-(2-methyl-3-(trifluoromethyl)phenyl)ethyl)phthalazin-1-amine] | 0.93 | 176 | –
Cc1c([C@@H](C)Nc2nnc(C)c3cc(F)c(N4CCNCC4)cc23)cccc1C(F)(F)F [Example 18-1, (R)-6-fluoro-4-methyl-N-(1-(2-methyl-3-(trifluoromethyl)phenyl)ethyl)-7-(piperazin-1-yl)phthalazin-1-amine] | – | – | Ki [1]: 0.98 nM; IC50 (pERK in MKN1 cells; [4]): 128 nM
Cc1c([C@@H](C)Nc2nnc(C)c3cnc(N4CCC(N5CCC5)CC4)cc23)cccc1C(F)(F)F [Example 12-33] | 0.3 | 55 | –
Cc1c([C@@H](C)Nc2nnc(C)c3cnc(N4CC(C)(CO)C4)cc23)cccc1C(F)(F)F [Example 12-39] | 0.91 | 75 | –
Cc1nnc(N[C@H](C)c2cccc(C(F)(F)F)c2F)c2cc(N3CCC(N(C)C)CC3)ncc12 [Example 12-64] | 0.51 | 29 | –
Cc1c([C@@H](C)Nc2nnc(C)c3cnc(N4CC5(CCN(C)C5=O)C4)cc23)cccc1C(F)(F)F [Example 12-16] | 0.87 | 11 | –
Cc1nnc(N[C@H](C)c2ccc(F)cc2Cl)c2cc(N3CCOCC3)ccc12 [Example 10-59, (R)-N-(1-(2-chloro-4-fluorophenyl)ethyl)-4-methyl-7-morpholinophthalazin-1-amine Hydrochloride salt] | – | – | Ki [1]: 30.9 nM; IC50 (pERK in MKN1 cells; Homo sapiens, MKN-1): 570 nM
Cc1nnc(N[C@H](C)c2cc(N)cc(C(F)(F)F)n2)c2cc(N3CC4CC(C3)O4)ccc12 [Example 16-4, N-((R)-1-(4-amino-6-(trifluoromethyl)pyridin-2-yl)ethyl)-7-(6-oxa-3-azabicyclo[3.1.1]heptan-3-yl)-4-methylphthalazin-1-amine] | 10.4 | 371 | –
Cc1c([C@@H](C)Nc2nnc(C)c3ccc(OC[C@H]4CCCN4C)cc23)cccc1C(F)(F)F [Example 10-25, 4-methyl-N-((R)-1-(2-methyl-3-(trifluoromethyl)phenyl)ethyl)-7-(((R)-1-methylpyrrolidin-2-yl)methoxy)phthalazin-1-amine hydrochloride salt] | – | – | Ki [1]: 1.47 nM; IC50 (pERK in MKN1 cells; Homo sapiens, MKN-1): 103 nM
Cc1c([C@@H](C)Nc2nnc(C)c3ccc(N4CCC5(CCCN5)CC4)cc23)cccc1C(F)(F)F [Example 10-35, (R)-4-methyl-N-(1-(2-methyl-3-(trifluoromethyl)phenyl)ethyl)-7-(1,8-diazaspiro[4.5]decan-8-yl)phthalazin-1-amine] | 0.31 | – | IC50 (pERK in MKN1 cells; pERK inhibition, In-Cell Western, MKN1 or H358 cells (Table 24 does not say which), 0.5-1 hour incubation, read-out: IC50): 1000 nM
Cc1c(C(F)F)cccc1[C@@H](C)Nc1nnc(C)c2cnc(N3CCN(c4cnn(C)c4)CC3)cc12 [Example 12-59] | 0.47 | 19 | –
Cc1nnc(N[C@H](C)c2cc(N)cc(C(F)(F)F)n2)c2cc(N3CC(C)(N(C)C)C3)ccc12 [Example 16-9, (R)-N-(1-(4-amino-6-(trifluoromethyl)pyridin-2-yl)ethyl)-7-(3-(dimethylamino)-3-methylazetidin-1-yl)-4-methylphthalazin-1-amine] | 35.6 | 643 | –
Cc1c([C@@H](C)Nc2nnc(C)c3ccc(N4CCNCC(F)C4)cc23)cccc1C(F)(F)F (stereo partly drawn) [Example 10-22, 7-(6-fluoro-1,4-diazepan-1-yl)-4-methyl-N-((R)-1-(2-methyl-3-(trifluoromethyl)phenyl)ethyl)phthalazin-1-amine] | 0.45 | 38 | –
Cc1c([C@@H](C)Nc2nnc(C)c3ccc(N4CC(N(C)C)C4)cc23)cccc1C(F)(F)F [Example 10-46, (R)-7-(3-(dimethylamino)azetidin-1-yl)-4-methyl-N-(1-(2-methyl-3-(trifluoromethyl)phenyl)ethyl)phthalazin-1-amine formate salt] | – | – | Ki [1]: 1.13 nM; IC50 (pERK in MKN1 cells; Homo sapiens, MKN-1): 157 nM
Cc1c([C@@H](C)Nc2nnc(C)c3ccc(N4CCN(C(=O)[C@H]5CCOC5)CC4)cc23)cccc1C(F)(F)F [Example 11-5, (4-(1-methyl-4-(((R)-1-(2-methyl-3-(trifluoromethyl)phenyl)ethyl)amino)phthalazin-6-yl)piperazin-1-yl)((S)-tetrahydrofuran-3-yl)methanone] | 0.01 | 12 | –
Cc1cc(F)ccc1[C@@H](C)Nc1nnc(C)c2cnc(N3CC(C)(O)C3)cc12 [Example 12-57] | 92.2 | 1860 | –
Cc1nnc(N[C@H](C)c2cccc(F)c2Cl)c2cc(N3CC(C)(O)C3)ncc12 [Example 12-80] | 37.4 | 295 | –
Cc1cn2c(n1)CN(c1ccc3cnnc(N[C@H](C)c4cccc(C(F)(F)F)c4C)c3c1)CC2 [Example 1-40, (R)-N-(1-(2-methyl-3-(trifluoromethyl)phenyl)ethyl)-7-(2-methyl-5,6-dihydroimidazo[1,2-a]pyrazin-7(8H)-yl)phthalazin-1-amine] | 0.27 | 171 | –
Cc1c(C#N)cccc1[C@@H](C)Nc1nnc(C)c2cnc(N3CC(C)(N(C)C)C3)cc12 [Example 12-43] | 3.38 | 44 | –
Cc1c([C@@H](C)Nc2nnc(C)c3ccc(N4CCC5(CCNC5=O)CC4)cc23)cccc1C(F)(F)F [Example 10-38, (R)-8-(1-methyl-4-((1-(2-methyl-3-(trifluoromethyl)phenyl)ethyl)amino)phthalazin-6-yl)-2,8-diazaspiro[4.5]decan-1-one] | 0.71 | 29 | –
Cc1c(C#N)cccc1[C@@H](C)Nc1nnc(C)c2c(F)cc(N3CCN4COCC[C@@H]4C3)cc12 [Example 21-9, 3-((R)-1-((5-fluoro-7-((R)-hexahydro-2H,6H-pyrazino[1,2-c][1,3]oxazin-2-yl)-4-methylphthalazin-1-yl)amino)ethyl)-2-methylbenzonitrile] | 2.1 | 54 | –
Cc1c(C#N)cccc1[C@@H](C)Nc1nnc(C)c2cnc(N3CC4(CCN(CC(F)(F)F)C4)C3)cc12 [Example 12-78] | 2.66 | 94 | –
Cc1cc(C#N)cc([C@@H](C)Nc2nnc(C)c3ccc(N4CCOCC4)cc23)c1 [Example 21-4, (R)-3-methyl-5-(1-((4-methyl-7-morpholinophthalazin-1-yl)amino)ethyl)benzonitrile] | – | – | Ki [1]: 13.7 nM; IC50 (pERK in MKN1 cells; [4]): 118 nM
